Where a SMILES comes first, the peptide text is derived from it. The star is where a group is joined. Cbz = O=C(OCc1ccccc1)*
Experiments:
SARS-CoV-2 [1] = assay: Inhibition of SARS-CoV-2 replication in cell lines (viral RNA by qPCR); assay type: cell-based
[2] = Viability of uninfected cell lines (MTT assay); assay type: cell-based, human; african green monkey; conditions: human (Calu-3, T84); African green monkey (Vero E6); uninfected Calu-3, T84, Vero E6; 48 h; MTT; read-out: half cytotoxic concentration (CC50) range
Method: (§1) D) Uninfected cell lines of lung (Calu-3), gut (T84) and kidney (Vero E6) origin were left untreated or treated with serial dilutions of cobicistat. Forty-eight hours post-treatment cellular viability was measured by MTT assay. Data, expressed as mean±SD of three independent experiments, were normalized to the untreated control and CC50 values were calculated by nonlinear regression.
(§2) Cell viability was evaluated by (3-[4,5-dimethylthiazol-2-yl]-2,5 diphenyl tetrazolium bromide) (MTT) assay and by crystal violet staining as previously described (Shytaj et al. 2020; Feoktistova, Geserick, and Leverkus 2016). Briefly, the MTT assay was conducted using the CellTiter 96® Non-Radioactive Cell Proliferation Assay (MTT) (Promega; Madison, Wis., USA). Cells were plated in a 96-well plate at a concentration of 3×10^6 cells/mL in 100 μl of medium. The MTT solution (15 μl) was added to each well and, after 2-4 h, the reaction was stopped by the addition of 100 μl of 10% SDS. Absorbance values were acquired using an Infinite 200 PRO (Tecan, Männedorf, Switzerland) multimode plate reader at 570 nm wavelength.
(§3) Data normality assumptions were tested by D'Agostino & Pearson normality test (for >3). […] Synergy scores were calculated using the SynergyFinder web-tool (Ianevski et al. 2020) using the Zero Interaction Potency (ZIP) model (Yadav et al. 2015).

[3] = test system: Calu-3, T84 and Vero E6 cells; assay: Viability of uninfected cell lines (MTT assay); assay type: cell-based, human; african green monkey; conditions: cobicistat 5-10 μM
Method: as §1, §2, §3

HIV-1 protease = HIV-1 protease (Human immunodeficiency virus type 1 group M subtype B, UniProt P04585); conditions: read-out: EC50 against the HIV-1 protease; selleckchem product page; cited from earlier work
[4] = mice, 50 mg/Kg; cited from earlier work
SARS-CoV-2 [5] = assay type: cell-based; conditions: cobicistat 5-10 μM; MTT and crystal violet; Calu-3, T84, Vero E6
SARS-CoV-2 S-protein = SARS-CoV-2 S-protein (Severe acute respiratory syndrome coronavirus 2, UniProt P0DTC2); assay: Syncytia formation assay in Vero E6 cells transfected with the S-protein; assay type: cell-based
3CLpro = 3CLpro (Severe acute respiratory syndrome coronavirus 2, UniProt P0DTD1); assay: 3CLpro FRET assay; assay type: biochemical, SARS-CoV-2
[6] = humans, standard dosing 150 mg/day; cited from earlier work

Row | Structure (SMILES) | viral RNA release in supernatant (SARS-CoV-2 [1]; Calu-3, Vero E6, T84, MOI 0.05 and 0.5, treated 2 h post-infection) | virus RNA amounts by qPCR, intracellular and supernatant (SARS-CoV-2 [1]; Calu-3 cells, time course, low micromolar concentrations) | IC50 (SARS-CoV-2 [1]; Severe acute respiratory syndrome coronavirus 2, 48 h, read-out: range of IC50 concentrations) | CC50 at 48 h [2] | tolerability by uninfected cells [3] | EC50 (HIV-1 protease) | plasma levels compared with in vitro IC50 and CC50 [4] | viability of infected cells (SARS-CoV-2 [5]) | concentration range with effect in syncytia assay (SARS-CoV-2 S-protein) | syncytia formation (SARS-CoV-2 S-protein; 24 h post transfection) | effect on catalytic activity of 3CLpro (3CLpro) | maximum plasma concentrations [6]
1 | CC(C)c1nc(CN(C)C(=O)N[C@@H](CCN2CCOCC2)C(=O)N[C@H](CC[C@H](Cc2ccccc2)NC(=O)OCc2cncs2)Cc2ccccc2)cs1 [Cobicistat, 1,3-thiazol-5-ylmethyl [(2R,5R)-5-{[(2S)-2-({[(2-isopropyl-1,3-thiazol-4-yl)methyl](methyl)carbamoyl}amino)-4-(morpholin-4-yl)butanoyl]amino}-1,6-diphenylhexan-2-yl]carbamate] | dose dependent effect in decreasing viral RNA release | dose dependent inhibitory effect | 0.58 to 8.76 µM | 38.7 to 53 µM | well tolerated | > 30 µM | clearly above all IC50 values calculated in our experiments, while remaining below the CC50 concentrations | partially rescue viability of infected cells | 5 to 10 µM | decreased syncytia formation | inactive | ≈ 1 μM
2 | CC(C)C[C@@H](C=O)NC(=O)[C@H](CC(C)C)NC(=O)[C@H](CC(C)C)NC(=O)OCc1ccccc1 [MG-132] (Cbz-Leu-Leu-Leu-aldehyde) |  |  |  |  |  |  |  |  |  |  | potently reduced the catalytic activity | 
